Assays:
Format in all cases: cell-based
CALU1 = assay: Lung cancer cell line viability, single agent or 1:1 combination (CTG 120h), Example 7; settings: Homo sapiens, Calu-1, 120 h, CALU1, CTG 120 h
Procedure: (§1) Cell lines were cultured in the media described above at 37° C. in a humidified atmosphere containing 5% CO2. Cells were seeded in 96 well clear bottom plates (96 well clear-bottom, white, Corning reference 3903) and exposed to the mAbs, mAbs mixture, ADCs or ADCs mixture as single agents or in 1:1 combination with Paclitaxel. When in 1:1 combination, both the combining partner (Paclitaxel) and the mAb, mAb mixture, ADC or ADC mixture were serially diluted (9 concentrations each, triplicates). Effect on cell viability was assessed after 5 days of incubation at 37° C./5% CO2 by quantification of cellular ATP levels using CellTiter-Glo reagent (Promega Ref: G7571) at 75 μL reagent/well. All the conditions were tested in triplicates. Luminescence was quantified on a multipurpose plate reader. IC50s were calculated using standard four-parametric curve fitting. IC50 is defined as the compound concentration at which the CTG signal is reduced to 50% of that measured for the control. Two independent experiments were performed (N1 and N2).

HCC366 = assay: as above; settings: HCC366, 120 h, HCC366, CTG 120 h
Procedure: as §1

HCC4006 = assay: as above; settings: Homo sapiens, HCC4006, 120 h, HCC4006, CTG 120 h
Procedure: as §1

HCC78 = assay: as above; settings: Homo sapiens, HCC78, 120 h, HCC78, CTG 120 h
Procedure: as §1

HCC827 = assay: as above; settings: Homo sapiens, HCC827, 120 h, HCC827, CTG 120 h
Procedure: as §1

LU65 = assay: as above; settings: Homo sapiens, Lu-65, 120 h, LU65, CTG 120 h
Procedure: as §1

NCI-H1838 = assay: as above; settings: Homo sapiens, NCI-H1838, 120 h, NCI-H1838, CTG 120 h
Procedure: as §1

NCI-H1975 = assay: as above; settings: Homo sapiens, NCI-H1975, 120 h, NCI-H1975, CTG 120 h
Procedure: as §1

NCI-H441 = assay: as above; settings: Homo sapiens, NCI-H441, 120 h, NCI-H441, CTG 120 h
Procedure: as §1

[1] = system: HCC78 lung cancer cell line; assay: HCC78 viability, single agent or 1:1 combination with Paclitaxel (CTG 120h), Example 8; settings: for effect on the viability: HCC-78, single agents, FIG. 3
Procedure: HCC78 lung cancer cell line was cultured in the media described above at 37° C. in a humidified atmosphere containing 5% CO2. Cells were seeded in 96 well clear bottom plates (96 well clear-bottom, white, Corning reference 3903) and exposed to the mAbs or ADCs as single agents or in 1:1 combination with Paclitaxel. When in 1:1 combination, both Paclitaxel and the mAb or ADC were serially diluted (9 concentrations each, triplicates). Effect on cell viability was assessed after 5 days of incubation at 37° C./5% CO2 by quantification of cellular ATP levels using CellTiter-Glo reagent (Promega Ref: G7571) at 75 μL reagent/well. All the conditions were tested in triplicates. Luminescence was quantified on a multipurpose plate reader. IC50s were calculated using standard four-parametric curve fitting. IC50 is defined as the compound concentration at which the CTG signal is reduced to 50% of that measured for the control. Two independent experiments were performed (N1 and N2).

AsPC-1 = assay: Pancreatic cancer cell line viability, single agent or 1:1 combination (CTG 120h), Example 10; settings: Homo sapiens, ASPC1, 120 h, AsPC-1, CTG 120 h
Procedure: (§2) Cell lines were cultured in the media described above at 37° C. in a humidified atmosphere containing 5% CO2. Cells were seeded in 96 well clear bottom plates (96 well clear-bottom, white, Corning reference 3903) and exposed to the mAbs or ADCs as single agents or in 1:1 combination with Paclitaxel, Trametinib or Gemcitabine. When in 1:1 combination, both the combining partner (Paclitaxel, Trametinib or Gemcitabine) and the mAb or ADC were serially diluted (9 concentrations each, triplicates). Effect on cell viability was assessed after 5 days of incubation at 37° C./5% CO2 by quantification of cellular ATP levels using CellTiter-Glo reagent (Promega Ref: G7571) at 75 μL reagent/well. All the conditions were tested in triplicates. Luminescence was quantified on a multipurpose plate reader. IC50s were calculated using standard four-parametric curve fitting. IC50 is defined as the compound concentration at which the CTG signal is reduced to 50% of that measured for the control. Two independent experiments were performed (N1 and N2).

BxPC-3 = assay: as above; settings: Homo sapiens, BXPC-3, 120 h, BxPC-3, CTG 120 h
Procedure: as §2

Hs766T = assay: as above
Procedure: as §2

KP-4 = assay: as above; settings: Homo sapiens, KP-4, 120 h, KP-4, CTG 120 h
Procedure: as §2

Panc 10.05 = assay: as above; settings: Homo sapiens, Panc1005, 120 h, Panc 10.05, CTG 120 h
Procedure: as §2

Cc1c(Nc2nc3ccccc3s2)nnc2c1CCCN2c1ccc(-c2cnn(C[C@]34C[C@]5(C)C[C@](C)(C3)C[C@@](OCCNCCCO)(C5)C4)c2C)c(C(=O)O)n1 [P25, 6-[3-(1,3-benzothiazol-2-ylamino)-4-methyl-6,7-dihydro-5H-pyrido[2,3-c]pyridazin-8-yl]-3-[1-[[3-[2-(3-hydroxypropylamino)ethoxy]-5,7-dimethyl-1-adamantyl]methyl]-5-methyl-pyrazol-4-yl]pyridine-2-carboxylic acid]
IC50 (CALU1; Mean): 14.6 nM
IC50 (CALU1; n1): 1.78 nM
IC50 (CALU1; n2): 14.6 nM
IC50 (HCC366; Mean): 29.4 nM
IC50 (HCC366; n1): 14.9 nM
IC50 (HCC366; n2): 43.8 nM
IC50 (HCC4006; Mean): 7460 nM
IC50 (HCC4006; n1): 7460 nM
IC50 (HCC4006; n2): > 10000 nM
IC50 (HCC78; Mean): 2260 nM
IC50 (HCC78; n1): 3220 nM
IC50 (HCC78; n2): 1310 nM
IC50 (HCC827; Mean): 108 nM
IC50 (HCC827; n1): 57.4 nM
IC50 (HCC827; n2): 158 nM
IC50 (LU65; Mean): > 10000 nM
IC50 (LU65; n1): 5610 nM
IC50 (LU65; n2): > 10000 nM
IC50 (NCI-H1838; Mean): 34 nM
IC50 (NCI-H1838; n1): 41.4 nM
IC50 (NCI-H1838; n2): 26.7 nM
IC50 (NCI-H1975; Mean): 9030 nM
IC50 (NCI-H1975; n1): 9030 nM
IC50 (NCI-H1975; n2): > 10000 nM
IC50 (NCI-H441; Mean): 1020 nM
IC50 (NCI-H441; n1): 1010 nM
IC50 (NCI-H441; n2): 1030 nM
effect on the viability [1]: induced a dose dependent decrease in the viability
IC50 (AsPC-1; mean): 244 nM
IC50 (AsPC-1; n1): 368 nM
IC50 (AsPC-1; n2): 121 nM
IC50 (BxPC-3; mean): 21800 nM
IC50 (BxPC-3; n1): 20800 nM
IC50 (BxPC-3; n2): 22800 nM
IC50 (Hs766T; mean): 1640 nM
IC50 (Hs766T; n1): 1900 nM
IC50 (Hs766T; n2): 1370 nM
IC50 (KP-4; mean): 17000 nM
IC50 (KP-4; n1): 14700 nM
IC50 (KP-4; n2): 19200 nM
IC50 (Panc 10.05; mean): 73.5 nM
IC50 (Panc 10.05; n1): 61.6 nM
IC50 (Panc 10.05; n2): 85.3 nM

CC(=O)O[C@H]1C(=O)[C@@]2(C)[C@H]([C@H](OC(=O)c3ccccc3)[C@]3(O)C[C@H](OC(=O)[C@H](O)[C@@H](NC(=O)c4ccccc4)c4ccccc4)C(C)=C1C3(C)C)[C@]1(OC(C)=O)CO[C@@H]1C[C@@H]2O [Paclitaxel, paclitaxel]
IC50 (CALU1; Mean): 25.6 nM
IC50 (CALU1; n1): 13.7 nM
IC50 (CALU1; n2): 37.4 nM
IC50 (HCC366; Mean): 7.45 nM
IC50 (HCC366; n1): 4 nM
IC50 (HCC366; n2): 10.9 nM
IC50 (HCC4006; Mean): 4.66 nM
IC50 (HCC4006; n1): 5.9 nM
IC50 (HCC4006; n2): 3.42 nM
IC50 (HCC78; Mean): 3.4 nM
IC50 (HCC78; n1): 2.52 nM
IC50 (HCC78; n2): 4.29 nM
IC50 (HCC827; Mean): 5.27 nM
IC50 (HCC827; n1): 4.11 nM
IC50 (HCC827; n2): 6.42 nM
IC50 (LU65; Mean): 29.7 nM
IC50 (LU65; n1): 32.4 nM
IC50 (LU65; n2): 27 nM
IC50 (NCI-H1838; Mean): > 300 nM
IC50 (NCI-H1838; n1): > 300 nM
IC50 (NCI-H1838; n2): > 300 nM
IC50 (NCI-H1975; Mean): 2.53 nM
IC50 (NCI-H1975; n1): 3.34 nM
IC50 (NCI-H1975; n2): 1.72 nM
IC50 (NCI-H441; Mean): 6.48 nM
IC50 (NCI-H441; n1): 9.2 nM
IC50 (NCI-H441; n2): 3.75 nM
Maximal effect on the viability (viability decrease) ([1]; HCC-78, FIG. 3): 80%
effect on the viability [1]: induced a dose dependent decrease in the viability
IC50 (AsPC-1; mean): 10.2 nM
IC50 (AsPC-1; n1): 12.4 nM
IC50 (AsPC-1; n2): 8.06 nM
IC50 (BxPC-3; mean): 0.93 nM
IC50 (BxPC-3; n1): 0.6 nM
IC50 (BxPC-3; n2): 1.25 nM
IC50 (Hs766T; mean): > 30000 nM
IC50 (Hs766T; n2): > 30000 nM
IC50 (KP-4; mean): 2.33 nM
IC50 (KP-4; n1): 0.47 nM
IC50 (KP-4; n2): 4.19 nM
IC50 (Panc 10.05; mean): 7.93 nM
IC50 (Panc 10.05; n1): 5.65 nM
IC50 (Panc 10.05; n2): 10.2 nM
